Test results as given in ChEMBL document CHEMBL5108080 (J Med Chem, 2022).
pEC50: −log10 of the molar value.

How the values were obtained:
[1] = system: Influenza A virus; assay: (§1) Antiviral activity against group 2 influenza A virus H3N2 (A/Hong Kong-11/1968) infected in human A549 cells assessed as inhibition of viral entry preincubated with compound for 30 mins followed by viral infection for 1 hour further incubated for 48 hrs with replacement of fresh medium containing compound; format: functional, organism-based
[2] = system: Influenza A virus; assay: as §1, with “H3N2 (A/Victoria/361/2011)” for “H3N2 (A/Hong Kong-11/1968)”, “containing compound.” for “containing compound”; format: functional, organism-based

Compound | pEC50 [1] | pEC50 [2]
c1ccc(-c2nc3ncccn3c2NC2CCCCC2)cc1 | 7.15 | 6.14
COc1ccc(-c2nc3ncccn3c2NC2CCCCC2)cc1 | 7.52 | 6.19
Oc1ccc(-c2nc3ncccn3c2NC2CCCCC2)cc1 | 6.44 | 5.82
Fc1ccc(-c2nc3ncccn3c2NC2CCCCC2)cc1 | 6.49 | 6.38
Brc1ccc(-c2nc3ncccn3c2NC2CCCCC2)cc1 | 6.72 | 5.82
Cc1cc(Br)ccc1-c1nc2ncccn2c1NC1CCCCC1 | 6.47 | 
CCOC(=O)C1=C[C@@H](OC(CC)CC)[C@H](NC(C)=O)[C@@H](N)C1 [OSELTAMIVIR] | 7.66 | < 5.00
